Species on record: Rattus norvegicus
Test: DrugMatrix - Regimen: Daily Repeat
Assay type: toxicity, organism-based, Sprague-Dawley
Set-up: regimen Daily Repeat, gender Male, age 6-8 weeks
Settings: in vivo, sc, […], route mini-PUMP - SUBCUTANEOUS, vehicle 100 % SALINE; for ALANINE AMINOTRANSFERASE / ALBUMIN / ALKALINE PHOSPHATASE / ASPARTATE AMINOTRANSFERASE / BLOOD UREA NITROGEN / CARBON DIOXIDE / CHLORIDE / CHOLESTEROL / CREATININE / LACTATE DEHYDROGENASE / LIPASE / PHOSPHORUS / POTASSIUM / SODIUM / TOTAL BILIRUBIN / TOTAL PROTEIN: tissue Plasma
[1] = 0 mg/kg, tissue Blood, dose level Control, time 14 day
[2] = 0 mg/kg, dose level Control, time 14 day
[3] = 72 h, tissue Blood, dose 0.77 mg/Kg, dose level High, time 3 day
[4] = 72 h, dose 0.77 mg/Kg, dose level High, time 3 day
[5] = 120 h, tissue Blood, dose 0.77 mg/Kg, dose level High, time 5 day
[6] = 120 h, dose 0.77 mg/Kg, dose level High, time 5 day

For `CNCC(O)c1ccc(O)c(O)c1` (stereo unspecified) [RACEPINEPHRINE], the “NUCLEATED RED BLOOD CELLS” value [1] was 0.17 /100WBC, the “PLATELET COUNT” value [1] was 1016 x10E3/uL and the “ALANINE AMINOTRANSFERASE” value [2] was 53.33 u/L. For the same compound, the ALBUMIN [2] was 3.93 G/DL, the “ALKALINE PHOSPHATASE” value [2] was 319.83 u/L and the “ASPARTATE AMINOTRANSFERASE” value [2] was 84 u/L. For the same compound, the “BLOOD UREA NITROGEN” value [2] was 15.5 mg/dL, the “CARBON DIOXIDE” value [2] was 34 mmol/L and the CHLORIDE [2] was 101.83 MEQ/L. The CHOLESTEROL [2] was 57 mg/dL, the CREATININE [2] was 0.21 mg/dL and the “LACTATE DEHYDROGENASE” value [2] was 104.67 u/L. It also gave an LIPASE [2] of 9.17 u/L, a PHOSPHORUS [2] of 11.12 mg/dL and a POTASSIUM [2] of 5.81 MEQ/L. For the same compound, the SODIUM [2] was 144.85 MEQ/L, the “TOTAL BILIRUBIN” value [2] was 0.18 mg/dL and the “TOTAL PROTEIN” value [2] was 5.92 G/DL. The “ABSOLUTE BASOPHIL” value [3] was 0 CELLS/uL, the “ABSOLUTE EOSINOPHIL” value [3] was 65.33 CELLS/uL and the “ABSOLUTE LYMPHOCYTE” value [3] was 15348.67 CELLS/uL. For the same compound, the “ABSOLUTE MONOCYTE” value [3] was 375.67 CELLS/uL, the “ABSOLUTE SEGMENTED NEUTROPHIL” value [3] was 2177 CELLS/uL and the BASOPHIL [3] was 0%. The “ERYTHROCYTE COUNT” value [3] was 6.29 x10E6/uL, the HEMOGLOBIN [3] was 13.53 G/DL and the “LEUKOCYTE COUNT” value [3] was 17.97 x10E3/uL. For the same compound, the “MEAN CORPUSCULAR HEMOGLOBIN” value [3] was 21.53 pg, the “MEAN CORPUSCULAR HEMOGLOBIN CONCENTRATION” value [3] was 36.13 G/DL and the “MEAN CORPUSCULAR VOLUME” value [3] was 59.7 fL. For the same compound, the “NUCLEATED RED BLOOD CELLS” value [3] was 0 /100WBC, the “PLATELET COUNT” value [3] was 1245.67 x10E3/uL and the “ALANINE AMINOTRANSFERASE” value [4] was 52.67 u/L. The ALBUMIN [4] was 4 G/DL, the “ALKALINE PHOSPHATASE” value [4] was 340.67 u/L and the “ASPARTATE AMINOTRANSFERASE” value [4] was 85 u/L. The “BLOOD UREA NITROGEN” value [4] was 16.33 mg/dL, the “CARBON DIOXIDE” value [4] was 25.67 mmol/L and the CHLORIDE [4] was 101 MEQ/L. For the same compound, the CHOLESTEROL [4] was 83.33 mg/dL, the “LACTATE DEHYDROGENASE” value [4] was 441.33 u/L and the LIPASE [4] was 9.67 u/L. For the same compound, the PHOSPHORUS [4] was 12.23 mg/dL, the POTASSIUM [4] was 6.83 MEQ/L and the SODIUM [4] was 145.53 MEQ/L. The “TOTAL BILIRUBIN” value [4] was 0.13 mg/dL, the “TOTAL PROTEIN” value [4] was 6.3 G/DL and the “ABSOLUTE BASOPHIL” value [5] was 0 CELLS/uL. For the same compound, the “ABSOLUTE EOSINOPHIL” value [5] was 0 CELLS/uL, the “ABSOLUTE LYMPHOCYTE” value [5] was 14606 CELLS/uL and the “ABSOLUTE MONOCYTE” value [5] was 577.33 CELLS/uL. The “ABSOLUTE SEGMENTED NEUTROPHIL” value [5] was 4283.33 CELLS/uL, the BASOPHIL [5] was 0% and the EOSINOPHIL [5] was 0%. For the same compound, the “ERYTHROCYTE COUNT” value [5] was 6.1 x10E6/uL, the HEMOGLOBIN [5] was 13.07 G/DL and the “LEUKOCYTE COUNT” value [5] was 19.47 x10E3/uL. The LYMPHOCYTE [5] was 75%, the “MEAN CORPUSCULAR HEMOGLOBIN” value [5] was 21.43 pg and the “MEAN CORPUSCULAR HEMOGLOBIN CONCENTRATION” value [5] was 36.87 G/DL. The “MEAN CORPUSCULAR VOLUME” value [5] was 58.1 fL, the “NUCLEATED RED BLOOD CELLS” value [5] was 0 /100WBC and the “PLATELET COUNT” value [5] was 1295.33 x10E3/uL. The “ALANINE AMINOTRANSFERASE” value [6] was 52.33 u/L, the ALBUMIN [6] was 3.83 G/DL and the “ALKALINE PHOSPHATASE” value [6] was 328 u/L. For the same compound, the “ASPARTATE AMINOTRANSFERASE” value [6] was 85.67 u/L, the CHOLESTEROL [6] was 64.67 mg/dL and the CREATININE [6] was 0.15 mg/dL. For the same compound, the “LACTATE DEHYDROGENASE” value [6] was 386.33 u/L, the LIPASE [6] was 9 u/L and the PHOSPHORUS [6] was 12.27 mg/dL. For the same compound, the POTASSIUM [6] was 6.8 MEQ/L, the SODIUM [6] was 147.2 MEQ/L and the “TOTAL BILIRUBIN” value [6] was 0.1 mg/dL. The “TOTAL PROTEIN” value [6] was 5.9 G/DL.

Source: ChEMBL document CHEMBL3885881, “DrugMatrix”
